# Measured values: US20260325533A1, “CDK INHIBITOR COMPOUNDS” (ALEKSIA THERAPEUTICS, INC., priority 2023, published 2026)
# Read-outs that look alike come from different tables or passages of the source.
# Key:
# Assay type in all cases: biochemical
# CDK1/CCNB1 = CDK1/CCNB1 (Homo sapiens, UniProt P06493); assay: CDK1 homogeneous time-resolved fluorescence (HTRF) kinase assay; conditions: CDK1/CCNB
# Summary of the method: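 0.5 nM CDK1/CCNB1 was preincubated 20 min at 23 °C with compound in HEPES pH-unspecified buffer (MgCl2, EGTA, DTT, Tween 20), then reacted 60 min with 1 mM ATP and 50 nM ULight-4E-BP1 (Thr37/46) peptide. EDTA-stopped reactions were detected with 2 nM Eu-anti-phospho antibody; IC50 from 11-point half-log titrations.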
# CDK2/CCNE1 = CDK2/CCNE1 (Homo sapiens, UniProt P24941); assay: CDK2 homogeneous time-resolved fluorescence (HTRF) kinase assay; conditions: CDK2/CCNE
# Summary of the method: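 TR-FRET read-out (665 nm, or 665/615 ratio) of Eu-antibody detection of phospho-4E-BP1 (Thr37/46) ULight peptide. Enzyme 3 nM, ATP 1 mM, peptide 50 nM, 1% DMSO; 60 min reaction at 23 °C after 20 min compound preincubation. IC50 from 11-point half-log titrations, top typically 10 μM.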
# CDK4/CCND3 = CDK4/CCND3 (Homo sapiens, UniProt P11802); assay: CDK4 homogeneous time-resolved fluorescence (HTRF) kinase assay; conditions: CDK4/CCND
# Sequence of CDK4/CCND3 (P11802 whole entry): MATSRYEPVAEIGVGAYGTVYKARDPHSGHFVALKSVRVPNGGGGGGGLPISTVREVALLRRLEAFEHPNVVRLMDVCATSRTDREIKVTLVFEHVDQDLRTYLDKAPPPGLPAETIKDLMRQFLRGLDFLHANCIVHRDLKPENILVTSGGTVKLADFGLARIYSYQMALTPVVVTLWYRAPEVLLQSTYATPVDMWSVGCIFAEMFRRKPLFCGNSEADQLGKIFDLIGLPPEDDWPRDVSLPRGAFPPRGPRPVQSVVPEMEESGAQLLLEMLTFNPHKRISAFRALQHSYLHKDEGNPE
# Sequence of CDK4/CCND3 (P30281 whole entry partner): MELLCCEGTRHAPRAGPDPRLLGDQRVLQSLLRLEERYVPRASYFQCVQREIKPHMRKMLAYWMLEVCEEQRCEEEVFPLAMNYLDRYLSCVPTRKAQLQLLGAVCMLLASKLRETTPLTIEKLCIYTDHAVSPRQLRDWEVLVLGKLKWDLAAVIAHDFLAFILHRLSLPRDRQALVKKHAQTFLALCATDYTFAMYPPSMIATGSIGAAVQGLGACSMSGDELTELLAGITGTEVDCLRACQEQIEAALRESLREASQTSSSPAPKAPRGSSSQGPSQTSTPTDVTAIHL
# Summary of the method: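 TR-FRET read (665 nm, or 665/615 ratio) of 4E-BP1 Thr37/46 phosphorylation by 1.5 nM CDK4/CCND3 at 1 mM ATP, 50 nM ULight peptide, 1% DMSO. Reaction ran 60 min at 23 °C after 20 min compound–enzyme preincubation. IC50 from 11-point half-log dilutions, top 10 μM.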
# CDK6/CCND1 = CDK6/CCND1 (Homo sapiens, UniProt Q00534); assay: CDK6 homogeneous time-resolved fluorescence (HTRF) kinase assay; conditions: CDK6/CCND
# Sequence of CDK6/CCND1 (Q00534 whole entry): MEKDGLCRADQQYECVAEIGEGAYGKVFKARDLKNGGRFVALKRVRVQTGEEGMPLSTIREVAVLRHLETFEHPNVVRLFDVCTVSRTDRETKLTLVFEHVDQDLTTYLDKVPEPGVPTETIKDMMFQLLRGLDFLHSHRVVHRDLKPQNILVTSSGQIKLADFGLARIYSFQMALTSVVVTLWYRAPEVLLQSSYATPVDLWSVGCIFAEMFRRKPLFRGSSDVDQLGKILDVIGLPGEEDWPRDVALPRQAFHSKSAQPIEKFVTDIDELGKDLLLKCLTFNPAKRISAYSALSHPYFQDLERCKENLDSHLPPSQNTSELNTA
# Sequence of CDK6/CCND1 (P24385 whole entry partner): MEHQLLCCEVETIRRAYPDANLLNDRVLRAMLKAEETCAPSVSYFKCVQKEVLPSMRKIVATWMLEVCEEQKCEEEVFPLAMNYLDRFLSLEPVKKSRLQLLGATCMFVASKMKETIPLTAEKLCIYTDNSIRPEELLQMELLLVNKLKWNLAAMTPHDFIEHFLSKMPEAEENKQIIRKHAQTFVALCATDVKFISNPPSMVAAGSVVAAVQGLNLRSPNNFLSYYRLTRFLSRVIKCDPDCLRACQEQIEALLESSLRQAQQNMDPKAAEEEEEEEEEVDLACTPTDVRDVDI
# Summary of the method: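 Assay conditions: HEPES buffer containing 10 mM MgCl2, 1 mM EGTA, 2 mM DTT, 0.01% Tween 20; 1 nM CDK6/CCND1, 50 nM peptide substrate, 1 mM ATP. Detection after 60 min reaction used 2 nM europium antibody with 340 nm excitation. Potency fitted from half-log series, 11 points.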
# [1] = >250 nM marked x, read-out: CDK1/CCNB IC50 >250 nM
# [2] = <25 nM, read-out: CDK2/CCNE IC50 <25 nM
# [3] = 25-250 nM marked x, read-out: CDK4/CCND IC50 25-250 nM
# [4] = 25-250 nM marked x, read-out: CDK6/CCND IC50 25-250 nM
# [5] = <25 nM, read-out: CDK2/CCNE IC50, <25 nM
# [6] = >250 nM, read-out: CDK1/CCNB IC50 >250 nM
# [7] = >250 nM, read-out: CDK4/CCND IC50, >250 nM
# [8] = >250 nM, 1 mM ATP, read-out: CDK6/CCND IC50, >250 nM
# [9] = 25-250 nM, read-out: CDK2/CCNE IC50, 25-250 nM
# [10] = x = IC50 >250 nM, read-out: CDK1/CCNB IC50 (>250 nM column)
# [11] = x = IC50 25-250 nM, read-out: CDK2/CCNE IC50 (25-250 nM)
# [12] = x = IC50 >250 nM, read-out: CDK4/CCND IC50 (>250 nM column)
# [13] = x = IC50 >250 nM, read-out: CDK6/CCND IC50 (>250 nM column)
# [14] = x = IC50 25-250 nM, read-out: CDK1/CCNB IC50 (25-250 nM)
# [15] = x = IC50 <25 nM, read-out: CDK2/CCNE IC50 (<25 nM)
# [16] = x = IC50 25-250 nM, read-out: CDK4/CCND IC50 (25-250 nM)
# [17] = x = IC50 25-250 nM, read-out: CDK6/CCND IC50 (25-250 nM)
# [18] = 25-250 nM marked x, read-out: CDK1/CCNB IC50 25-250 nM
# Sequence of CDK1/CCNB1 (P06493 whole entry): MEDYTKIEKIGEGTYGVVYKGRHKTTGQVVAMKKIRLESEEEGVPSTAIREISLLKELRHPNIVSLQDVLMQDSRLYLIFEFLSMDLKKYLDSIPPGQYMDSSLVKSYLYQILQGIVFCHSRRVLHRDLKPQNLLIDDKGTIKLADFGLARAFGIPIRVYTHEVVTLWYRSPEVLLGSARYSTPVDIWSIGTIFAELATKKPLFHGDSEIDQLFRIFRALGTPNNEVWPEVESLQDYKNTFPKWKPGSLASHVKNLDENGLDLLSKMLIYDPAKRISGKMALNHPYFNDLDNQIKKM
# Sequence of CDK1/CCNB1 (P14635 whole entry partner): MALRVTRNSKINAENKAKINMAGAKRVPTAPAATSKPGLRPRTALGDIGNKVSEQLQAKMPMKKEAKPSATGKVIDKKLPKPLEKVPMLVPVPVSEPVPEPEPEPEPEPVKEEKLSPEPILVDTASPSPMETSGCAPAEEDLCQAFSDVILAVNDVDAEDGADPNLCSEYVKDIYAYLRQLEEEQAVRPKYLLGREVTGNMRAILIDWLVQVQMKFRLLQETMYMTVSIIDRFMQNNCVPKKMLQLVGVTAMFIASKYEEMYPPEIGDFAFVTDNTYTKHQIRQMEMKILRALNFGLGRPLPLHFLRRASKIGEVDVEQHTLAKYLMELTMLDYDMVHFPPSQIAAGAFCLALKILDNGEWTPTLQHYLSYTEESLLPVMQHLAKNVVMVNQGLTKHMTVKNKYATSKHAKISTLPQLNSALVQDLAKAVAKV
structure (smiles),measurement,setting,value
"Cc1c(-c2nccc3cnc(Nc4ccc(S(C)(=O)=O)cc4)cc23)ccc2[nH]ncc12 [Ex 148, 5-(4-methyl-1H-indazol-5-yl)-N-(4-(methylsulfonyl)phenyl)-2,6-naphthyridin-3-amine]",IC50,CDK1/CCNB1; [1],> 250 nM
same,IC50,CDK2/CCNE1; [2],< 25 nM
same,IC50,CDK4/CCND3; [3],25 to 250 nM
same,IC50,CDK6/CCND1; [4],25 to 250 nM
"CS(=O)(=O)c1ccc(Nc2cc3c(C#CC45CCC(C#N)(CC4)CC5)nccc3cn2)cc1 (racemic) [Ex 946, 4-((7-((4-(methylsulfonyl)phenyl)amino)-2,6-naphthyridin-1-yl)ethynyl)bicyclo[2.2.2]octane-1-carbonitrile]",IC50,"CDK1/CCNB1; 25-250 nM, read-out: CDK1/CCNB IC50, 25-250 nM",25 to 250 nM
same,IC50,CDK2/CCNE1; [5],< 25 nM
same,IC50,"CDK4/CCND3; 25-250 nM, read-out: CDK4/CCND IC50, 25-250 nM",25 to 250 nM
same,IC50,"CDK6/CCND1; 25-250 nM, 1 mM ATP, read-out: CDK6/CCND IC50, 25-250 nM",25 to 250 nM
"Cc1c(-c2nccc3cnc(Nc4ccc(S(=O)(=O)Nc5ccccc5)cc4)cc23)ccc2c1cnn2CC(C)(C)O [Ex 809, 4-((5-(1-(2-hydroxy-2-methylpropyl)-4-methyl-1H-indazol-5-yl)-2,6-naphthyridin-3-yl)amino)-N-phenylbenzenesulfonamide]",IC50,CDK1/CCNB1; [6],> 250 nM
same,IC50,CDK2/CCNE1; [5],< 25 nM
same,IC50,CDK4/CCND3; [7],> 250 nM
same,IC50,CDK6/CCND1; [8],> 250 nM
"Cc1c(-c2nccc3cnc(Nc4ccc(S(=O)(=O)Nc5nccc(F)n5)cc4)cc23)ccc2c1cnn2CC(C)(C)O [Ex 881, N-(4-fluoropyrimidin-2-yl)-4-((5-(1-(2-hydroxy-2-methylpropyl)-4-methyl-1H-indazol-5-yl)-2,6-naphthyridin-3-yl)amino)benzenesulfonamide]",IC50,CDK1/CCNB1; [6],> 250 nM
same,IC50,CDK2/CCNE1; [9],25 to 250 nM
same,IC50,CDK4/CCND3; [7],> 250 nM
same,IC50,CDK6/CCND1; [8],> 250 nM
"COC(=O)c1cc2ccc(C#Cc3nccc4cnc(Nc5ccc(S(C)(=O)=O)cc5)cc34)cc2[nH]1 [Example 594, methyl 6-((7-((4-(methylsulfonyl)phenyl)amino)-2,6-naphthyridin-1-yl)ethynyl)-1H-indole-2-carboxylate]",IC50,CDK1/CCNB1; [10],> 250 nM
same,IC50,CDK2/CCNE1; [11],25 to 250 nM
same,IC50,CDK4/CCND3; [12],> 250 nM
same,IC50,CDK6/CCND1; [13],> 250 nM
"O=C(ON1C(=O)CCC1=O)c1ccc(Nc2cc3c(C4=CCCCC4)nccc3cn2)cc1 [Ex 113, 2,5-dioxopyrrolidin-1-yl 4-((5-(cyclohex-1-en-1-yl)-2,6-naphthyridin-3-yl)amino)benzoate]",IC50,"CDK1/CCNB1; <25 nM, read-out: CDK1/CCNB IC50 <25 nM",< 25 nM
same,IC50,CDK2/CCNE1; [2],< 25 nM
same,IC50,CDK4/CCND3; [3],25 to 250 nM
same,IC50,CDK6/CCND1; [4],25 to 250 nM
"CCS(=N)(=O)c1ccc(Nc2cc3c(C#Cc4cccnc4N)nccc3cn2)cc1 (racemic) [Ex 489, (4-((5-((2-aminopyridin-3-yl)ethynyl)-2,6-naphthyridin-3-yl)amino)phenyl)(ethyl)(imino)-l6-sulfanone]",IC50,CDK1/CCNB1; [10],> 250 nM
same,IC50,CDK2/CCNE1; [11],25 to 250 nM
same,IC50,CDK4/CCND3; [12],> 250 nM
same,IC50,CDK6/CCND1; [13],> 250 nM
"Cc1cc(S(C)(=O)=O)ccc1Nc1cc2c(C#Cc3cccnc3N)nccc2cn1 [Ex 420, 5-((2-aminopyridin-3-yl)ethynyl)-N-(2-methyl-4-(methylsulfonyl)phenyl)-2,6-naphthyridin-3-amine]",IC50,CDK1/CCNB1; [10],> 250 nM
same,IC50,CDK2/CCNE1; [11],25 to 250 nM
same,IC50,CDK4/CCND3; [12],> 250 nM
same,IC50,CDK6/CCND1; [13],> 250 nM
"CS(=O)(=O)c1ccc(Nc2cc3c(C#Cc4ccnc(F)c4)nccc3cn2)cc1 [Ex 508, 5-((2-fluoropyridin-4-yl)ethynyl)-N-(4-(methylsulfonyl)phenyl)-2,6-naphthyridin-3-amine]",IC50,CDK1/CCNB1; [10],> 250 nM
same,IC50,CDK2/CCNE1; [11],25 to 250 nM
same,IC50,CDK4/CCND3; [12],> 250 nM
same,IC50,CDK6/CCND1; [13],> 250 nM
"CNC(=O)Cn1ncc2c(C)c(-c3nccc4cnc(Nc5ccc(S(C)(=O)=O)cc5)cc34)ccc21 [Ex 640, N-methyl-2-(4-methyl-5-(7-((4-(methylsulfonyl)phenyl)amino)-2,6-naphthyridin-1-yl)-1H-indazol-1-yl)acetamide]",IC50,CDK1/CCNB1; [14],25 to 250 nM
same,IC50,CDK2/CCNE1; [15],< 25 nM
same,IC50,CDK4/CCND3; [16],25 to 250 nM
same,IC50,CDK6/CCND1; [17],25 to 250 nM
"CS(=O)(=O)c1ccc(Nc2cc3c(C#CC4CC(O)C4)nccc3cn2)cc1 (racemic) [Ex 147, 3-((7-((4-(methylsulfonyl)phenyl)amino)-2,6-naphthyridin-1-yl)ethynyl)cyclobutan-1-ol]",IC50,CDK1/CCNB1; [18],25 to 250 nM
same,IC50,CDK2/CCNE1; [2],< 25 nM
same,IC50,CDK4/CCND3; [3],25 to 250 nM
same,IC50,CDK6/CCND1; [4],25 to 250 nM
"Cc1c(-c2nccc3cnc(Nc4ccc(S(=O)(=O)NC5CCCCC5)cc4)cc23)ccc2c1cnn2CC(C)(C)O [Ex 758, N-cyclohexyl-4-((5-(1-(2-hydroxy-2-methylpropyl)-4-methyl-1H-indazol-5-yl)-2,6-naphthyridin-3-yl)amino)benzenesulfonamide]",IC50,CDK1/CCNB1; [6],> 250 nM
same,IC50,CDK2/CCNE1; [9],25 to 250 nM
same,IC50,CDK4/CCND3; [7],> 250 nM
same,IC50,CDK6/CCND1; [8],> 250 nM
"Cc1c(-c2nccc3cnc(Nc4ccc(S(C)(=O)=O)cc4)cc23)ccc2c1cnn2CCO [Ex 267, 2-(4-methyl-5-(7-((4-(methylsulfonyl)phenyl)amino)-2,6-naphthyridin-1-yl)-1H-indazol-1-yl)ethan-1-ol]",IC50,CDK1/CCNB1; [18],25 to 250 nM
same,IC50,CDK2/CCNE1; [2],< 25 nM
same,IC50,CDK4/CCND3; [3],25 to 250 nM
same,IC50,CDK6/CCND1; [4],25 to 250 nM
"Cc1c(-c2nccc3cnc(Nc4ccc(S(C)(=O)=O)cc4)cc23)ccc2c1cnn2CC(C)O (single isomer, unassigned) [Example 614, 1-(4-methyl-5-(7-((4-(methylsulfonyl)phenyl)amino)-2,6-naphthyridin-1-yl)-1H-indazol-1-yl)propan-2-ol]",IC50,CDK1/CCNB1; [10],> 250 nM
same,IC50,CDK2/CCNE1; [15],< 25 nM
same,IC50,CDK4/CCND3; [16],25 to 250 nM
same,IC50,CDK6/CCND1; [17],25 to 250 nM
"CN(c1nccc2cnc(NC3CCN(S(C)(=O)=O)CC3)cc12)C1CCCCC1 [Ex 44, N1-cyclohexyl-N1-methyl-N7-(1-(methylsulfonyl)piperidin-4-yl)-2,6-naphthyridine-1,7-diamine]",IC50,CDK1/CCNB1; [18],25 to 250 nM
same,IC50,CDK2/CCNE1; [2],< 25 nM
same,IC50,CDK4/CCND3; [3],25 to 250 nM
same,IC50,CDK6/CCND1; [4],25 to 250 nM
"Cc1c(-c2nccc3cnc(Nc4ccc(S(C)(=O)=O)cc4)cc23)ccc2c1cnn2CC(C)O (racemic) [Ex 672, 1-(4-methyl-5-(7-((4-(methylsulfonyl)phenyl)amino)-2,6-naphthyridin-1-yl)-1H-indazol-1-yl)propan-2-ol]",IC50,CDK1/CCNB1; [14],25 to 250 nM
same,IC50,CDK2/CCNE1; [15],< 25 nM
same,IC50,CDK4/CCND3; [16],25 to 250 nM
same,IC50,CDK6/CCND1; [17],25 to 250 nM
"CN1CCN(c2cc(Nc3cc4c(C#Cc5ccc(=O)[nH]n5)nccc4cn3)cnc2O)CC1 [Example 723, 6-((7-((6-hydroxy-5-(4-methylpiperazin-1-yl)pyridin-3-yl)amino)-2,6-naphthyridin-1-yl)ethynyl)pyridazin-3(2H)-one]",IC50,CDK1/CCNB1; [6],> 250 nM
same,IC50,CDK2/CCNE1; [9],25 to 250 nM
same,IC50,CDK4/CCND3; [7],> 250 nM
same,IC50,CDK6/CCND1; [8],> 250 nM
"CS(=O)(=O)c1ccc(Nc2cc3c(C4CCN(Cc5cccnc5)C4)nccc3cn2)cc1 (racemic) [Ex 232, N-(4-(methylsulfonyl)phenyl)-5-(1-(pyridin-3-ylmethyl)pyrrolidin-3-yl)-2,6-naphthyridin-3-amine]",IC50,CDK1/CCNB1; [1],> 250 nM
same,IC50,"CDK2/CCNE1; >250 nM marked x, read-out: CDK2/CCNE IC50 >250 nM",> 250 nM
same,IC50,"CDK4/CCND3; >250 nM marked x, read-out: CDK4/CCND IC50 >250 nM",> 250 nM
same,IC50,"CDK6/CCND1; >250 nM marked x, read-out: CDK6/CCND IC50 >250 nM",> 250 nM
